Experimental data published in patent publication US11236055B2 (Venenum Biodesign, LLC, priority 2016, dated 2022).

Key:
mouse TGR5 receptor = molecular target: T1, mouse TGR5 receptor (Mus musculus, UniProt Q80SS6); assay: Mouse TGR5 cAMP production assay (HTRF, Cisbio cAMP HiRange); type: cell-based; conditions: HEK293-EBNA cells overexpressing mouse TGR5, HTRF cAMP HiRange; coded A-D
T1 construct: expressed in transfected cells; host or cells: HEK293-EBNA (293 c18, ATCC CRL10852), Hygromycin B selection
T1 sequence (Q80SS6 1-329): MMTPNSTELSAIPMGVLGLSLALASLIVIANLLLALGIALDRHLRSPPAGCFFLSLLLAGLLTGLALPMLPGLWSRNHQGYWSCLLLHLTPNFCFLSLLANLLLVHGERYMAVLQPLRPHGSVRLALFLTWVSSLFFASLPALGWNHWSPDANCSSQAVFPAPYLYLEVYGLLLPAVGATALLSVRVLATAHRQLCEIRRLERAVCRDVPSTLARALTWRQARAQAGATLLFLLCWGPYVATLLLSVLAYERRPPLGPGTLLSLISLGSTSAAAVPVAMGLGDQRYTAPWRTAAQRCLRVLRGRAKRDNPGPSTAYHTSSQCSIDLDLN
Source text: Mouse TGR5 cAMP Production Assay
We evaluated compounds of the present invention for their ability to induce cAMP production in HEK-EBNA cells overexpressing the mouse TGR5 receptor. Human embryonic kidney cells (HEK293-EBNA) stably expressing mouse TGR5 receptor were established using the following procedure. Specifically, a commercially-obtained gene encoding mouse TGR5 (accession number BC116914) from Thermo Scientific (Waltham, Mass.) was cloned into an episomal expression vector. The resulting expression plasmid was then transfected into 293 c18 (ATCC® CRL10852™) cells, which express the Epstein-Barr virus nuclear antigen EBNA1 and can support the replication of episomal vectors. Selection for the plasmid was maintained with Hygromycin B. Cells were cultured and maintained in DMEM (Sigma; cat #6429) supplemented with 10% Fetal Bovine Serum, 1% penicillin/streptomycin, 2 mM L-alanine L-glutamine (GlutaMax), and 250 μg/mL Hygromycin.
2. HTRF cAMP Production Assay
In this second cAMP production assay, the cAMP production was measured in 384-well low volume plates (Greiner; cat #784075) using the Cisbio™ cAMP HiRange HTRF Assay Kit (Cisbio) according to the manufacturer's protocol.
Briefly, compounds were initially diluted in 100% DMSO (12-point serial dilution by half logs) in a 96-well plate and then were further diluted 1:50 in PBS containing 10 mM HEPES. 5 μL were transferred to the 384-well assay plate in duplicate. HEK293-EBNA cells stably overexpressing mouse TGR5 were harvested using non-enzymatic cell dissociation buffer (Sigma), spun down, then resuspended in serum-free DMEM with 500 μM IBMX at a density of 500,000 cells/mL. 5 μL of cell suspension was transferred to each well of the 384-well assay plate already containing compound. The plate was covered and incubated at room temperature for 1 hour. The d2-cAMP and anti-cAMP Ab-cryptate stock solutions were prepared as per kit instructions. Then 5 μL of each conjugate (d2 and cryptate) were added to each well of the assay plate. The plate was covered and incubated at room temperature for 1 hour. The plate was read on an Envision™ plate reader (Perkin Elmer).
(§1) In Table 33, EC50 values for both human and mouse cells were determined according to the TGR5 cAMP assays described above.

human TGR5 receptor = molecular target: T2, human TGR5 receptor (Homo sapiens, UniProt Q8TDU6); assay: Human TGR5 cAMP production assay; type: cell-based; conditions: human TGR5, luminescent cAMP assay; coded A-D; read-out: Human TGR5 Lum. cAMP Activity (EC50)
T2 construct: host or cells: CHO-K1 (hTGR5-CHO cells)
T2 sequence (Q8TDU6 1-330): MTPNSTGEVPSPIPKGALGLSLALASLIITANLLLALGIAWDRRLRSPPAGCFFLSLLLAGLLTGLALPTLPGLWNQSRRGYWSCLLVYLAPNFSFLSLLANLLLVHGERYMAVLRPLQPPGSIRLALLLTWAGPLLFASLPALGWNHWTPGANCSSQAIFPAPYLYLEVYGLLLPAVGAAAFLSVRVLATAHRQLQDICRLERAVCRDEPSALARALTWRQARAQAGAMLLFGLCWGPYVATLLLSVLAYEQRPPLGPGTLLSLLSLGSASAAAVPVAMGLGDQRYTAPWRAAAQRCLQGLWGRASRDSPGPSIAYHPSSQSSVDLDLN
Description: Human TGR5 cAMP Production Assay
We evaluated the Compounds of the present invention for their ability to induce cAMP production using CHO-K1 cells overexpressing the human TGR5 receptor. CHO-K1 cells stably expressing human TGR5 receptor (accession number NM_001077194.1 (hTGR5) (i.e., hTGR5-CHO cells) were purchased from DiscoveRx Corporation (Fremont, Calif.). hTGR5-CHO cells were grown in Ham's F-12 media supplemented with 10% Fetal Bovine Serum, 1% Penicillin-Streptomycin, 2 mM L-Alanine L-Glutamine (Glutamax), and 800 μg/mL Geneticin selection. The cAMP production assay was performed using DiscoveRx's cAMP XS+ kit (Catalog No. 90-0075XL) following the manufacturer's recommended protocol. Briefly, hTGR5-CHO cells were harvested using non-enzymatic cell dissociation buffer (Sigma-Aldrich, St. Louis, Mo.) and 1×10^6 cells were combined in Phosphate-Buffered Saline (PBS) to a final volume of 496 μL to which 4 μL of 125 mM IBMX (Sigma-Aldrich, St. Louis, Mo.) was added. 500 μL of cAMP antibody solution was added to the harvested cells and incubated at room temperature for 20 min.
Test compounds were serially diluted (half-log dilutions) in DMSO and then further diluted 1:50 in PBS, 10 mM HEPES buffer. 2 μL of serially diluted compound was added to a 384-well low volume plate (Greiner; cat #784075) and centrifuged briefly. 2 μL of the cell/cAMP antibody mixture was then added to each compound-containing well and allowed to incubate at room temperature for one hour. Following incubation, the XS+ kits' ED/Lysis/CL Substrate Working Solution was prepared following the manufacturer's recommended protocol and 4 μL was added to each well of the plate. The plate was then incubated for one hour at room temperature. Following incubation, 4 μL of Enzyme Acceptor reagent was added to the plate and allowed to incubate overnight at room temperature. Luminescent signal was then detected using the Viewlux instrument (Perkin-Elmer, Waltham, Mass.).
as §1

SMILES	EC50 (mouse TGR5 receptor)	EC50 (human TGR5 receptor)
Cc1cnccc1-c1cccc([C@H](C)N(CCCC(=O)NCCS(=O)(=O)NCC(=O)O)S(=O)(=O)c2ccc(F)cc2C(F)(F)F)c1 [Compound 36, (S)-2-(4-(4-fluoro-N-(1-(3-(3-methylpyridin-4-yl)phenyl)ethyl)-2-(trifluoromethyl)phenylsulfonamido)butanamido)ethanesulfonamido acetic acid]	< 100 nM	< 100 nM
Cc1cnccc1-c1cccc(C(C)(C)NS(=O)(=O)c2cc(Br)ccc2C)c1 [Compound 2BW]	100 to 999 nM	< 100 nM
Cc1c(Cl)cccc1S(=O)(=O)N(CCCC(=O)NCCS(=O)(=O)O)[C@@H](C)c1cccc(-c2ccnnc2)c1 [Compound 20BO, (S)-2-(4-(3-chloro-2-methyl-N-(1-(3-(pyridazin-4-yl)phenyl)ethyl)phenylsulfonamido)butanamido)ethanesulfonic acid]	> 30000 nM	100 to 999 nM
Cc1cnccc1-c1cccc(C(C)(C)N(CCCC(=O)NCCNC(=N)N)S(=O)(=O)c2cccc(Cl)c2C)c1 [Compound 27AB, 4-(3-chloro-2-methyl-N-(2-(3-(3-methylpyridin-4-yl)phenyl)propan-2-yl)phenylsulfonamido)-N-(2-guanidinoethyl)butanamide]	100 to 999 nM	< 100 nM
Cc1cnccc1-c1cccc([C@H]2C[C@@H](C(=O)O)CCN2S(=O)(=O)c2ccccc2C(F)(F)F)c1 (relative stereo) [Compound 55, cis-2-(3-(3-Methylpyridin-4-yl)phenyl)-1-((2-(trifluoromethyl)phenyl)sulfonyl)piperidine-4-carboxylic acid]	100 to 999 nM	100 to 999 nM
CCc1cnccc1-c1cc(OC)cc(C(C)(C)NS(=O)(=O)c2ccccc2C(F)(F)F)c1 [Compound 2CD]	100 to 999 nM	100 to 999 nM
Cc1cnccc1-c1cccc(C(C)(C)N(CCCC(=O)NCCNC(=O)OC(C)(C)C)S(=O)(=O)c2cccc(Cl)c2C)c1 [Compound 20AV, tert-butyl (2-(4-(3-chloro-2-methyl-N-(2-(3-(3-methylpyridin-4-yl)phenyl)propan-2-yl)phenylsulfonamido)butanamido)ethyl)carbamate]	100 to 999 nM	< 100 nM
COc1cnccc1-c1cccc(C(C)(C)NS(=O)(=O)c2cc(Cl)ccc2[N+](=O)[O-])c1 [Compound 2BH]	< 100 nM	< 100 nM
COc1cnccc1-c1cccc(C2CN(C(=O)CCC(=O)O)CCN2S(=O)(=O)c2cccc(Cl)c2C)c1 (centres unmarked) [Compound 46AH, 4-(4-((3-chloro-2-methylphenyl)sulfonyl)-3-(3-(3-methoxypyridin-4-yl)phenyl)piperazin-1-yl)-4-oxobutanoic acid]	< 100 nM	100 to 999 nM
Cc1c(Cl)cccc1S(=O)(=O)N1CCN(C(=O)CCC(=O)O)CC1c1cccc(-c2ccncc2)c1 (centres unmarked) [Compound 46AF, 4-(4-((3-chloro-2-methylphenyl)sulfonyl)-3-(3-(pyridin-4-yl)phenyl)piperazin-1-yl)-4-oxobutanoic acid]	1000 to 30000 nM	1000 to 30000 nM
Cc1cnccc1-c1cccc(C(C)(C)NS(=O)(=O)c2cccc(Cl)c2C)c1 [Compound 2BU]	< 100 nM	< 100 nM
Cc1cnccc1-c1cccc([C@H](C)N(CCCCO)S(=O)(=O)c2cccc(Cl)c2C)c1 [Compound 39, (S)-3-chloro-N-(4-hydroxybutyl)-2-methyl-N-(1-(3-(3-methylpyridin-4-yl)phenyl)ethyl)Benzenesulfonamide]	< 100 nM	< 100 nM
CCc1cnccc1-c1cccc([C@H](C)NS(=O)(=O)c2ccccc2C(F)(F)F)c1 [Compound 5AQ, (S)-N-(1-(3-(3-ethylpyridin-4-yl)phenyl)ethyl)-2-(trifluoromethyl)benzenesulfonamide]	< 100 nM	< 100 nM
CCc1cnccc1-c1cccc([C@H](C)N(CCCC(=O)NCC[N+](C)(C)C)S(=O)(=O)c2cccc(Cl)c2C)c1 [Compound 27AE, (S)-2-(4-(3-chloro-N-(1-(3-(3-ethylpyridin-4-yl)phenyl)ethyl)-2-methylphenylsulfonamido)butanamido)-N,N,N-trimethylethanaminium]	100 to 999 nM	< 100 nM
COc1cnccc1-c1cccc(C2CCCN2S(=O)(=O)c2ccccc2C(F)(F)F)c1 (centres unmarked) [Compound 40AA, 3-methoxy-4-(3-(1-((2-(trifluoromethyl)phenyl)sulfonyl)pyrrolidin-2-yl)phenyl)pyridine]	1000 to 30000 nM	< 100 nM
CCc1cnccc1-c1cccc([C@H](C)N(CCCC(=O)NCS(=O)(=O)O)S(=O)(=O)c2ccccc2C(F)(F)F)c1 [Compound 20BE, (S)-(4-(N-(1-(3-(3-ethylpyridin-4-yl)phenyl)ethyl)-2-(trifluoromethyl)phenylsulfonamido)butanamido)methanesulfonic acid]	< 100 nM	< 100 nM
COc1cccc(S(=O)(=O)N2CCN(C(=O)CCC(=O)O)CC2c2cccc(-c3ccncc3C)c2)c1 (centres unmarked) [Compound 46AJ, 4-(4-((3-methoxyphenyl)sulfonyl)-3-(3-(3-methylpyridin-4-yl)phenyl)piperazin-1-yl)-4-oxobutanoic acid]	100 to 999 nM	1000 to 30000 nM
COc1cnccc1-c1cccc(C2CCCN2S(=O)(=O)c2cccc(C(F)(F)F)c2)c1 (centres unmarked) [Compound 40, 3-methoxy-4-(3-(1-((3-(trifluoromethyl)phenyl)sulfonyl)pyrrolidin-2-yl)phenyl)pyridine]	1000 to 30000 nM	100 to 999 nM
Cc1cncnc1-c1cccc(C(C)(C)NS(=O)(=O)c2ccccc2C(F)(F)F)c1 [Compound 6AA, N-(2-(3-(5-methylpyrimidin-4-yl)phenyl)propan-2-yl)-2-(trifluoromethyl)benzenesulfonamide]	1000 to 30000 nM	1000 to 30000 nM
